Tests used:
[1] = Plasma ANP immunoreactivity and pharmacokinetics after subcutaneous administration to conscious canines; format: in vivo, canine
Experimental: (§1) Studies were performed in accordance with the Animal Welfare Act and with approval of the Mayo Clinic Institutional Animal Care and Use Committee. A randomized crossover study was designed in which equimolar (2.225 nmol/kg) SQ M-ANP and SQ ANP were administered to conscious healthy adult canines (n=5) at 2-week intervals. Vehicle (SQ 0.9% normal saline) was administered to 3 canines serving as a control group. At least 7 days prior to the above studies, an arterial port was placed in the femoral artery as previously described (Cataliotti et al. (2008) Circulation, 118:1729-1736). After recovery from arterial port placement, canines were fed a fixed sodium diet of 100 mEq/d with ad libitum access to water for 5 days before initiation of studies. During this time, canines were acclimatized to standing calm in a sling. On the day of the experiment, the dogs were fasted and placed in a sling in a quiet room. Thirty minutes before the beginning of the experiment, the femoral artery port was accessed for continuous BP and heart rate assessment (iWorx, Dover, N.H.). After 30 minutes of acclimatization, the study protocol was started. Subcutaneous M-ANP, ANP or vehicle was administered at time 0 minutes. At time −15, 0, 5, 10, 15, 30, 45, 60, 75, 90, 120, 150, 180, 210, 240, 270, and 300 minutes, mean arterial pressure (MAP) and heart rate samples were obtained over a period of 1 minute. […]
(§2) Blood samples were collected in chilled EDTA tubes, immediately placed on ice, and centrifuged at 4° C. […] After extraction, plasma ANP immunoreactivity (Phoenix Pharmaceuticals, Burlingame, Calif.) was assessed by radioimmunoassay as previously described (Burnett et al. (1986) Science, 231:1145-1147). […] Plasma cGMP (PerkinElmer, Waltham, Mass.) was assessed by radioimmunoassay (Steiner et al., supra).
(§3) Pharmacokinetic profile of M-ANP compared to ANP was determined using PK Solutions software (Summit PK, Montrose, Colo.). Specific parameters that were determined included plasma half-life, maximum concentration (Cmax) and area under the curve (AUC).

cGMP = assay: Plasma cGMP after subcutaneous administration to conscious canines; format: in vivo, canine
Experimental: as §1, §2, §3

[2] = Mean arterial pressure and heart rate after subcutaneous administration to conscious canines; format: in vivo, canine; settings: SQ
Experimental: as §1

[3] = infusion of a low dose, normal dogs; cited from earlier work
[4] = plasma cGMP, subcutaneous, equimolar 2.225 nmol/kg, conscious canines

- time ANP immunoreactivity remained significantly elevated ([1]; SQ, canines): 45 min
- time of peak ANP immunoreactivity after administration ([1]; SQ, canines): 15 min
- ANPi AUC ([1]; subcutaneous, equimolar 2.225 nmol/kg, conscious canines): 10.8 ± 2.4 pmol·min/mL
SMILES: CC[C@H](C)[C@@H]1NC(=O)[C@H](CCCNC(=N)N)NC(=O)[C@H](CC(=O)O)NC(=O)[C@H](CCSC)NC(=O)[C@H](CCCNC(=N)N)NC(=O)CNC(=O)CNC(=O)[C@H](Cc2ccccc2)NC(=O)[C@@H](NC(=O)[C@H](CO)NC(=O)[C@H](CO)NC(=O)[C@H](CCCNC(=N)N)NC(=O)[C@H](CCCNC(=N)N)NC(=O)[C@H](CC(C)C)NC(=O)[C@@H](N)CO)CSSC[C@@H](C(=O)N[C@@H](CC(N)=O)C(=O)N[C@@H](CO)C(=O)N[C@@H](Cc2ccccc2)C(=O)N[C@@H](CCCNC(=N)N)C(=O)N[C@@H](Cc2ccc(O)cc2)C(=O)O)NC(=O)CNC(=O)[C@H](CC(C)C)NC(=O)CNC(=O)[C@H](CO)NC(=O)[C@H](CCC(N)=O)NC(=O)[C@H](C)NC(=O)CNC1=O [ANP]
- duration of sustained cGMP activation (cGMP; SQ, canines): 60 min
- cGMP AUC (cGMP; [4]): 676 ± 211 pmol·min/mL
- cGMP Cmax (cGMP; [4]): 14.7 ± 1.9 pmol/mL
- effect on MAP [2]: no significant reduction in MAP
- change in glomerular filtration rate (GFR) or MAP [3]: No change

From patent publication US20140066367A1, “SUBCUTANEOUS DELIVERY OF A LONG-ACTING NATRIURETIC PEPTIDE” (Mayo Foundation for Medical Education and Research, priority 2012, published 2014)
